From ChEMBL document CHEMBL3045432, “Synthesis and Fungicidal Activity of -Cyanoacetamide Derivatives: Discovery of a New Rice Blast Fungicide, Diclocymet (S-2900)” (2002)
≈ marks a conversion by molar mass, not a printed value.

Assays:
Type in all cases: functional
[1] = tested on: Pyricularia grisea; experiment: Fungicidal activity against Magnaporthe grisea in rice plant assessed as prevention from rice blast disease measured as lesions under greenhouse at > 200 ppm for 8 days by soil drench compound treated before inoculation
[2] = tested on: Pyricularia grisea; experiment: Fungicidal activity against Magnaporthe grisea in rice plant assessed as prevention from rice blast disease measured as lesions under greenhouse at > 200 ppm for 8 days by foliar spray compound treated before inoculation
[3] = tested on: Pyricularia grisea; experiment: Fungicidal activity against Magnaporthe grisea in rice plant assessed as rice blast disease measured as damage under greenhouse at 0.4 ppm for 8 days by foliar spray compound treated before inoculation
[4] = tested on: Pyricularia grisea; experiment: Fungicidal activity against Magnaporthe grisea in rice plant assessed as rice blast disease measured as damage under greenhouse at 25 ppm for 8 days by foliar spray compound treated before inoculation
[5] = tested on: Pyricularia grisea; experiment: Fungicidal activity against Magnaporthe grisea in rice plant assessed as rice blast disease measured as damage under greenhouse at 6.3 ppm for 8 days by foliar spray compound treated before inoculation
[6] = tested on: Pyricularia grisea; experiment: Fungicidal activity against Magnaporthe grisea in rice plant assessed as rice blast disease measured as damage under greenhouse at 1.6 ppm for 8 days by foliar spray compound treated before inoculation
[7] = tested on: Pyricularia grisea; experiment: Fungicidal activity against Magnaporthe grisea in rice plant assessed as rice blast disease measured as damage under greenhouse by foliar spray for 8 days compound treated before inoculation; details: 192 h
[8] = tested on: Pyricularia grisea; experiment: Fungicidal activity against Magnaporthe grisea in rice plant assessed as prevention from rice blast disease measured as lesions under greenhouse at 50 ppm for 8 days by soil drench compound treated before inoculation
[9] = tested on: Pyricularia grisea; experiment: Fungicidal activity against Magnaporthe grisea in rice plant assessed as prevention from rice blast disease measured as lesions under greenhouse at 3.1 ppm for 8 days by foliar spray compound treated before inoculation
[10] = tested on: Pyricularia grisea; experiment: Fungicidal activity against Magnaporthe grisea in rice plant assessed as prevention from rice blast disease measured as lesions under greenhouse at 12.5 ppm for 8 days by foliar spray compound treated before inoculation
[11] = tested on: Pyricularia grisea; experiment: Fungicidal activity against Magnaporthe grisea in rice plant assessed as prevention from rice blast disease measured as lesions under greenhouse at 12.5 ppm for 8 days by soil drench compound treated before inoculation
[12] = tested on: Pyricularia grisea; experiment: Fungicidal activity against Magnaporthe grisea in rice plant assessed as prevention from rice blast disease measured as lesions under greenhouse at 50 ppm for 8 days by foliar spray compound treated before inoculation
[13] = tested on: Pyricularia grisea; experiment: Fungicidal activity against Magnaporthe grisea in rice plant assessed as prevention from rice blast disease measured as lesions under greenhouse at 200 ppm for 8 days by soil drench compound treated before inoculation
[14] = tested on: Pyricularia grisea; experiment: Fungicidal activity against Magnaporthe grisea in rice plant assessed as prevention from rice blast disease measured as lesions under greenhouse at 200 ppm for 8 days by foliar spray compound treated before inoculation

SMILES: CC(NC(=O)C(C#N)C(C)(C)C)c1ccc(Cl)cn1 (stereo unspecified)
- Activity [1]: <=10%
- Activity [2]: <=10%

SMILES: C[C@@H](NC(=O)[C@@H](C#N)C(C)(C)C)c1ccc(Cl)cc1Cl
- Activity [3]: 0%
- Activity [4]: 4%
- Activity [5]: 3%
- Activity [6]: 2%
- MIC [7]: 0.16 µg/mL (≈ 0.511 µM)

SMILES: C=CC(C)(C)C(C#N)C(=O)NC(C)c1ccc(Cl)cc1OC (stereo unspecified)
- Activity [8]: <=10%
- Activity [9]: <=10%

SMILES: C[C@H](NC(=O)[C@H](C#N)C(C)(C)C)c1ccc(Cl)cc1Cl
- Activity [3]: 0%
- Activity [4]: 0%
- Activity [5]: 0%
- Activity [6]: 0%
- MIC [7]: > 20 µg/mL

SMILES: C=CC(C)(C)C(C#N)C(=O)NC(C)c1ccc(Cl)cc1Cl (stereo unspecified)
- Activity [8]: <=10%
- Activity [10]: <=10%

SMILES: C=CC(C)(C)C(C#N)C(=O)NC(C)c1ccc(Cl)cc1C (stereo unspecified)
- Activity [1]: <=10%

SMILES: C[C@@H](NC(=O)[C@H](C#N)C(C)(C)C)c1ccc(Cl)cc1Cl
- Activity [3]: 3%
- Activity [4]: 5%
- Activity [5]: 4%
- Activity [6]: 4%
- MIC [7]: 0.04 µg/mL (≈ 0.128 µM)

SMILES: C[C@H](NC(=O)[C@@H](C#N)C(C)(C)C)c1ccc(Cl)cc1Cl
- Activity [3]: 0%
- Activity [4]: 0%
- Activity [5]: 0%
- Activity [6]: 0%
- MIC [7]: > 20 µg/mL

SMILES: C=CC(C)(C)C(C#N)C(=O)NC(C)c1ccc(Cl)cc1F (stereo unspecified)
- Activity [11]: <=10%
- Activity [9]: <=10%

SMILES: CC(NC(=O)C(C#N)C(C)(C)C)c1ccc(Cl)c(Cl)c1 (stereo unspecified)
- Activity [8]: <=10%
- Activity [12]: <=10%

SMILES: CC(NC(=O)C(C#N)C(C)(C)C)c1ccc(Cl)cc1Cl (stereo unspecified)
- Activity [8]: <=10%
- Activity [9]: <=10%

SMILES: CC(NC(=O)C(C#N)C(C)(C)C)c1ccc(OC(F)(F)C(F)F)cc1 (stereo unspecified)
- Activity [13]: <=10%
- Activity [14]: <=10%

SMILES: CC(NC(=O)C(C#N)C(C)(C)C)c1ccccc1Cl (stereo unspecified)
- Activity [13]: <=10%

SMILES: CC(NC(=O)C(C#N)C(C)(C)C)c1cccc(Cl)c1 (stereo unspecified)
- Activity [13]: <=10%
- Activity [14]: <=10%

SMILES: CC(NC(=O)C(C#N)C(C)(C)C)c1ccc(OC(F)F)cc1 (stereo unspecified)
- Activity [8]: <=10%
- Activity [12]: <=10%

SMILES: CC(NC(=O)C(C#N)C(C)(C)C)c1ccc(OC(F)(F)F)cc1 (stereo unspecified)
- Activity [8]: <=10%
- Activity [12]: <=10%

SMILES: CC(NC(=O)C(C#N)C(C)(C)C)c1ccc(C(F)(F)F)cc1 (stereo unspecified)
- Activity [8]: <=10%
- Activity [9]: <=10%

SMILES: Cc1ccc(C(C)NC(=O)C(C#N)C(C)(C)C)cc1 (stereo unspecified)
- Activity [8]: <=10%
- Activity [9]: <=10%

SMILES: COc1ccc(C(C)NC(=O)C(C#N)C(C)(C)C)cc1 (stereo unspecified)
- Activity [13]: <=10%
- Activity [14]: <=10%

SMILES: CC(C)(C)C(C#N)C(=O)Nc1ccc(Cl)cc1 (stereo unspecified)
- Activity [1]: <=10%
- Activity [2]: <=10%

SMILES: CC(C)(C)C(C#N)C(=O)NCc1ccc(Cl)cc1 (stereo unspecified)
- Activity [13]: <=10%
- Activity [14]: <=10%

SMILES: CCC(NC(=O)C(C#N)C(C)(C)C)c1ccc(Cl)cc1 (stereo unspecified)
- Activity [1]: <=10%
- Activity [2]: <=10%

SMILES: CC(NC(=O)C(C#N)C(C)(C)C)c1ccc(Cl)nc1 (stereo unspecified)
- Activity [1]: <=10%
- Activity [14]: <=10%

SMILES: CC(NC(=O)C(C#N)C(C)(C)C)c1ccc(Cl)s1 (stereo unspecified)
- Activity [1]: <=10%
- Activity [14]: <=10%

SMILES: CC(NC(=O)C(C#N)C(C)(C)C)c1ccccc1 (stereo unspecified)
- Activity [1]: <=10%
- Activity [14]: <=10%

SMILES: CC(NC(=O)C(C#N)C(C)(C)C)c1ccc(F)cc1 (stereo unspecified)
- Activity [1]: <=10%
- Activity [14]: <=10%

SMILES: CC(NC(=O)C(C#N)C(C)(C)C)c1ccc(Br)cc1 (stereo unspecified)
- Activity [11]: <=10%
- Activity [9]: <=10%

SMILES: CC(C)NC(=O)C(C#N)C(C)(C)C (stereo unspecified)
- Activity [1]: <=10%
- Activity [2]: <=10%

SMILES: CC(C)C(C)NC(=O)C(C#N)C(C)(C)C (stereo unspecified)
- Activity [1]: <=10%
- Activity [2]: <=10%

SMILES: CC(NC(=O)C(C#N)=C1CCCC1)c1ccc(Cl)cc1 (stereo unspecified)
- Activity [13]: <=10%
- Activity [14]: <=10%

SMILES: CC(NC(=O)C(C#N)=C1CCCCC1)c1ccc(Cl)cc1 (stereo unspecified)
- Activity [1]: <=10%
- Activity [2]: <=10%

SMILES: CCC(CC)=C(C#N)C(=O)NC(C)c1ccc(Cl)cc1 (stereo unspecified)
- Activity [13]: <=10%
- Activity [12]: <=10%

SMILES: CC(NC(=O)C1(C#N)CC1(C)C)c1ccc(Cl)cc1 (stereo unspecified)
- Activity [1]: <=10%
- Activity [2]: <=10%
